Experimental data reported in EPA's ToxValDB 9.5 (doi:10.2903/j.efsa.2018.5378).

Columns and labels:
Apis mellifera = details: acute, duration: 48 hours, mortality
Pimephales promelas = details: chronic/long-term, duration: 33 days
Cyprinus carpio = details: acute; duration: 96 hours; mortality
Neomysis kadiakensis = details: chronic/long-term; duration: 28 days; reproduction
Tagia sp. = details: chronic/long-term; duration: 56 days; reproduction
Daphnia magna = details: chronic/long-term; duration: 21 days; reproduction
Oncorhynchus mykiss = details: acute; duration: 96 hours; mortality
Hypoaspis aculeifer = details: chronic/long-term; duration: 14 days; reproduction
[1] = chronic, duration: 2 years, histopathology: neoplastic

Row | Compound | LD50 (Apis mellifera; dermal) [µg/piece] | LD50 (Apis mellifera; oral, unspecified) [µg/piece] | NOEC (Pimephales promelas; development) [mg/L] | LD50 (Colinus virginianus; acute, oral, mortality) [mg/kg-day] | NOEL (Colinus virginianus; reproduction developmental) [mg/kg-day] | LC50 (Cyprinus carpio) [µg/mL] | LD50 (Rattus norvegicus; acute, oral, mortality) [mg/kg-day] | NOAEL (Rattus norvegicus; [1]) [mg/kg-day] | NOAEL (Rattus norvegicus; reproduction developmental, no effects) [mg/kg-day] | NOEC (Neomysis kadiakensis) [mg/L] | NOEC (Tagia sp.) [mg/kg] | NOEC (Daphnia magna) [mg/L] | NOEC (Pimephales promelas; other) [mg/L] | LC50 (Oncorhynchus mykiss) [µg/mL] | NOEC (Hypoaspis aculeifer) [mg/kg]
1 | COc1c(Cl)ccc(-c2nc(C(=O)OCc3ccccc3)c(Cl)c(N)c2F)c1F [Florpyrauxifen-benzyl] | > 100 | > 105 | 0.037 | > 2250 | 87.2 | > 0.0414 | > 5000 | 50 | 300 | 0.0078 |  |  |  |  | 
2 | COc1c(Cl)ccc(-c2nc(C(=O)O)c(Cl)c(N)c2F)c1F [Florpyrauxifen] |  |  |  |  |  |  |  | 50 |  |  | 213 | 25 | 29.8 | > 100 | 25
